Values quoted from earlier work as cited in patent US20030190375A1, “Therapeutical use of sophora flavescens or sophora subprostrata extracts” (priority 2000, published 2003).

Assays:
[1] = test system: Ishikawa-Var-I cells; settings: Milligan et al 1999
[2] = Huang, The Pharmacology of Chinese Herbs, 1993

## CC(C)=CCc1c(O)cc(O)c2c1O[C@H](c1ccc(O)cc1)CC2=O [8-prenylnaringenine]
[1]
  oestrogenic potency in vitro (stimulation of alkaline phosphatase): significantly more active than the long-familiar phyto-oestrogens such as cumesterol, genistone or daidzin, and produced only a slightly weaker effect than 17β oestradiol

## O=C1CCC[C@@H]2[C@H]3CCC[N+]4([O-])CCC[C@@H](CN12)[C@@H]34 (some centres unmarked) [oxymatrine]
[2]
  toxic effects in animal studies: toxic effects could be shown
